Laboratory results from US11434468B2, “Lactic acid bacteria and its applications” (Bened Biomedical Co., Ltd., priority 2017, dated 2022).

Legend:
[1] = tested on: rats subjected to chronic mild stress; assay: Forced swim test after 4 weeks of chronic mild stress protocol; type: in vivo, rat; conditions: 4 weeks chronic mild stress, daily oral gavage, 5 min forced swim test, comparison between groups, P<0.05, FIG. 3
Protocol: Forced swim test (FST) was performed in a black opaque swim cylinder with a depth of 68 cm and diameter of 40 cm. The cylinder was filled up with water to the depth of 30 cm, leaving some space on top to prevent the escape of rat. A video camera was set up above the swim cylinder to capture and record the animals' behavior during the test.
Each animal was gently placed into the water in the swim cylinder and was given 5 minutes to swim freely in the swim cylinder. The behavior of the animals were observed and recorded throughout the test. All rats were dried thoroughly with clean towel after the FST before returning them to their respective cage throughout the assessment. The duration of immobility of the rats were timed and then expressed as mean±standard of mean from six replicates (n=6) per group.
Forced swim test is one of the most commonly used assays for the study of depressive-like behavior in rodents. […] In forced swim test, a swimming cylinder filled with 30 cm depth of water. Depression assessment of rats was performed by scoring predominant behavior in each 5-s period of the 300-s test.

[2] = tested on: rats subjected to chronic mild stress; assay: Morris water maze after chronic mild stress; type: in vivo, rat; conditions: 4 weeks chronic mild stress, daily oral gavage, comparison between groups, P<0.05, FIG. 6(a)
Protocol: The diameter of the MWM used was 210 cm, where the height of the pool was 51 cm with non-reflective interior surfaces. The maze was placed in a room with a video camera set up on top of the maze to capture and record the animal's behavior. The water maze was filled up with water of temperature ranging within 19-22° C. to avoid the rats from getting temperature shock (hypothermia or hyperthermia). Then, a colorless and transparent circular goal or platform (designated as escape platform) with the diameter of 10-12 cm was submerged 1-2 cm below the water surface and ensured with stability to avoid tipping of animal when the rats climb on it.
The start locations of the MWM was designated at East, West and South East, while the escape platform is submerge at North East. A consecutive four daily trials were performed using these three start locations. Briefly, the animals were gently placed on the first start locations and allowed to swim freely to search for the escape platform. A maximum of two minutes was given for each animal to perform the search for the escape platform. All rats were dried thoroughly with clean towel after the Morris test before returning them to their respective cage. Time taken by each animal to locate the escape, escape latency (seconds) is expressed as mean±standard of mean from six replicates (n=6) per group. […]

[3] = tested on: rats subjected to chronic mild stress; assay: Elevated plus maze after 4 weeks of chronic mild stress protocol; type: in vivo, rat; conditions: 4 weeks chronic mild stress, daily oral gavage (PS150 1×10^9 cfu; protein 300 mg/kg; alprazolam), 5 min, comparison between groups
Description: The elevated plus maze (EPM) consists of four arms, two open arms without walls and two enclosed walls of 40 cm high, 50 cm long and 15 cm wide. Each arm of the maze is attached with firm metallic legs with 70 cm high. The EPM was placed in a room with bright lighting, close to the center of the room. The levels of illumination of both open and closed arms were maintained similar. A video camera was set up above the elevated plus maze to capture and record the animal's behavior.
Animal was taken out from its cage and placed at the middle (ie. the junction of the open and closed arm) of EPM, facing away from the maze towards the wall. Each animal was given 5 minutes to explore freely on the EPM. Throughout the assessment, the EPM was cleaned and dried with 70% ethanol before accessing the next animal. The number of open arm entries and time spent in open arms were observed, timed and recorded. The number of entries to open arms and the duration spent on open arms were recorded and expressed as mean±standard of means from six replicates (n=6) per group.
Analyses on rat behavior were carried out after 4 weeks of chronic mild stress protocol. […] Rats were placed at the junction of the four arms of the maze, facing an open arm, and entries/duration in each arm was recorded for 5 min. […]

[4] = tested on: rats subjected to chronic mild stress; assay: Open field test after 4 weeks of chronic mild stress protocol; type: in vivo, rat; conditions: 4 weeks chronic mild stress, daily oral gavage, 5 min open field test
Protocol: Open field test was performed using an opaque rectangular box with the dimension of 32 cm high, 38 cm width and 52 cm long was placed in the center of the experiment room supplied with bright lighting. A video camera was set up above the rectangular box to capture the behavior of the animals.
Each animal was gently transferred from its cage into the OFT and allowed to freely explore inside the box. […] The box was cleaned with 70% ethanol during the interval of each test throughout the assessment. The duration of exploratory and immobility was expressed as mean±standard of mean from six replicates (n=6) per group.
The open field test is broadly used to assess exploratory behavior and validated for use in the measurement of anxiety-related behaviors. The procedure consists of subjecting the rat, to an unknown environment from which escape is prevented by surrounding walls. […] Increased exploratory behaviours in rats indicate less anxiety states, whereas immobility indicate anxiety behaviour in rats.

[5] = tested on: SH-SY5Y neuroblastoma cells; assay: Cell viability (MTT) upon dexamethasone-induced neurotoxicity; type: cell-based, human; conditions: dexamethasone 25 μM, MTT 48 h after treatment, unfermented MRS control = 100% viability, FIG. 11
Protocol: Neuroblastoma cell line, SH-SY5Y cells were purchased from Korea Cell Line Bank (KCLB; Seoul, Korea). Cells were maintained in high glucose Dulbecco's Modified Eagle Medium (DMEM; Difco, Detroit, Mich., USA) supplemented with 10% heat-inactivated fetal bovine serum (FBS; Gibco Life Technologies Inc, Grand Island, N.Y., USA), 100 U/mL penicillin/streptomycin (Gibco Life Technologies Inc, Grand Island, N.Y., USA). Cultures were seeded into flasks containing supplemented medium and maintained at 37° C. in a humidified atmosphere of 5% CO2 and 95% air.
The SH-SY5Y cells were seeded into 96-well culture plates at a seeding density 1×10^5 cells per well. All cells in this study were maintained in 10% serum medium until the dexamethasone (Dex; Sigma-Aldrich, Steinheim, Germany) treatment. Cells were incubated for 24 h to allow attachment to the culture plate before treatment. […] The 3-(4, 5 dimethylthiazol-2-yl)-2,5-diphenyl-tetrazolium bromide (MTT; Sigma-Aldrich, Steinheim, Germany) reduction was analyzed 48 h after treatment.
Cell viability was measured by quantitative colorimetric assay with MTT, as described previously by Denizot and Lang (J Immunol Methods. 1986 May 22; 89(2):271-7.). […] Colorimetric determination of MTT reduction was measured at 570 nm using microplate reader (Thermo Scientific, Waltham, Mass., US). […]

Compound | Time spent immobile [1] | Escape latency [2] | Number of entries into the open arms ([3]; P<0.05, FIG. 1(a)) | Ratio of time spent on the closed arms to the time spent on the open arms ([3]; P<0.05, FIG. 1(b)) | Duration of immobility ([4]; between naïve control, positive control, PS150 and protein fraction groups, FIG. 2) | Duration of exploratory activity ([4]; comparison between groups, P<0.05, FIG. 2) | Neuroprotective effect (cell viability) against dexamethasone [5]
Cc1nnc2n1-c1ccc(Cl)cc1C(c1ccccc1)=NC2 [alprazolam] | insignificantly different | Insignificant difference | insignificant differences | insignificant differences | insignificantly different | insignificantly different | –
fraction A: HPLC-purified fraction of the PS150 protein fraction, approximately 55 kDa, identified as elongation factor Tu (SEQ ID NO:4) | – | – | – | – | – | – | most prevalent neuroprotective effect
